ChEMBL document CHEMBL3507680, “University of Dundee, Gates Library screen for HepG2 cell viability”

assay: Human HepG2 cell viability assay in 384 well format; format: toxicity, cell-based; set-up: dose 125 nL, time 70.5 hour; cytotoxicity at 70.5 h: concentration not given beside the values; settings: HepG2 cells, read-out: Inhibition

In order of falling cytotoxicity at 70.5 h:
1. CCOc1ccc(N2CCC(C(O)c3ccccc3)CC2)nn1 (centres undefined)  51.9%
2. CC(C)OCCCNC(=O)c1cccnc1N1CCOCC1  39.8%
3. CCc1ncc(C(=O)N(C)Cc2cc(-c3ccncc3)no2)cn1  35.7%
4. Cn1c(=O)oc2ccc(S(=O)(=O)N3CCC(c4ccccc4)C3)cc21 (centres undefined)  28.3%
5. CCc1noc(C(C)N2CCc3c(ncn3C3CC3)C2)n1 (centres undefined)  28.1%
6. COc1ccc2c(c1)c(C(=O)Nc1nnn[nH]1)cn2C(C)C  24.1%
7. COc1cc(/C=C/c2ncc(C(=O)O)s2)cc(OC)c1  14.7%
8. CC(NCCCC#N)c1ccc(-c2ccncc2)cc1 (centres undefined)  14.3%
9. CC(Nc1nc2c(cnn2C)c(=O)[nH]1)c1ccccn1 (centres undefined)  13%
10. CC(CN1CCCC1)C(=O)N1CCC(c2nccn2CC2CC2)CC1 (centres undefined)  12.9%
11. CC(=O)N1CCC(C(=O)NC2CC(C)(C)Oc3cc(C)ccc32)CC1 (centres undefined)  12.8%
12. Cc1nc(C)n(CC2CCCCN2CCS(C)(=O)=O)n1 (centres undefined)  12.7%
13. CCN(CC)C(=O)CSc1nc2nc(C)ccc2o1  11.9%
14. Cc1ccc(C(=O)N(CCC#N)Cc2ccccn2)cc1C  8.47%
15. O=C(NCc1cc[nH]n1)N1CCN(c2ccccc2Cl)CC1  6.1%
16. O=C(C1CC=CC1)N1CCC2(CCN(Cc3ccccn3)C2=O)C1 (centres undefined)  5.7%
17. N#Cc1cccnc1Nc1ccc(N2CCC(C(N)=O)CC2)cc1  4.18%
18. Cc1ccc(CN2CC[C@@H](N(C)C(C)C)[C@@H]2Cc2ccccc2)o1  2.54%
19. CCc1cnc(N2C[C@H](OCc3csc(C)n3)[C@H]3COC[C@H]32)nc1  2.07%
20. O=S(=O)(N1CCCCC1)N1CCCN(CC2CCCO2)CC1 (centres undefined)  1.43%
21. O=C(CCc1c(F)cccc1F)N1CCCCC1Cn1cccn1 (centres undefined)  1.38%
22. Cc1nc(O)cc(CCNC(=O)CN2CCCCCC2)n1  1.28%
23. COc1ccc2c(c1)OC1(CCN(Cc3ccc(F)cc3)CC1)CC2=O  1.23%
24. COc1ccc2cnn(CC(=O)NC3CCCCC3)c(=O)c2c1OC  1.17%
25. COc1cc(C(=O)NCC2(N(C)C)CCN(C)CC2)c2ccccc2n1  0.627%
26. CC(C)c1n[nH]c(C2CN(C(=O)c3cc(C(N)=O)cs3)CCO2)n1 (centres undefined)  0.559%
27. OCc1c(Cl)ncn1-c1ccccc1  0.513%
28. COc1cccc(S(=O)(=O)CCN2CCCN(C(C)=O)CC2)c1  0.259%
29. CCn1cc(C2=CCN(CCCOc3ccccc3)CC2)cn1  0.137%
30. CCc1nc(C2CCCN2C(=O)c2csc(COC)n2)no1 (centres undefined)  -0.0198%
31. CN(C)CCN1CC[C@@H]2O[C@@H](COCC(=O)N3CCCC3)CC[C@@H]21  -0.268%
32. CCOc1ncccc1CNC(=O)N1CCC(n2cncn2)CC1  -0.329%
33. Cc1cccc2c1nc1n2[C@@H](CNC(=O)NC(C)C)COC1  -0.416%
34. Cc1occc(=O)c1OCC(=O)N1CCN(c2ccccc2)CC1  -0.838%
35. Cc1cnc(C(=O)N2CCC3(CCCN(c4nncs4)C3)C2)cn1 (centres undefined)  -0.974%
36. Cc1cccc(C(C(=O)N2CC(Oc3ccccc3F)C2)N(C)C)c1 (centres undefined)  -1.02%
37. Cc1ccc(O)c(C(=O)N2CCOCC2c2c(C)n[nH]c2C)c1 (centres undefined)  -1.53%
38. Cc1cccc(-n2c(C)cc(C(=O)N3CCn4c(C)nnc4C3)c2C)c1  -1.57%
39. CCc1nccn1C1CCCN(C(=O)c2cc[nH]n2)C1 (centres undefined)  -1.71%
40. Cc1cc(C(=O)N2CCS(=O)(=O)CC2)c(C)o1  -2.07%
41. CCNC(=O)[C@@H]1CCCN1[C@@H](C(=O)NC)C1CC1  -2.16%
42. CN(C)C(=O)CC1CC2(CCN(Cc3ccoc3)CC2)c2ccccc21 (centres undefined)  -2.19%
43. CCn1cc(NC(=O)C2CCN(CC(=O)NC(C)(C)CC)CC2)cn1  -2.19%
44. O=C(NC1CCc2ccccc2C1)C1CCN(Cc2ccco2)CC1 (centres undefined)  -2.67%
45. Cc1ccnn1CCC(=O)N1C[C@@H](O)[C@H](Oc2cccc(F)c2)C1  -2.79%
46. Cc1ccc(OCC(=O)NCc2ccco2)nc1  -2.92%
47. c1cnc(N2CCCC(Cc3nccs3)C2)nc1 (centres undefined)  -3.8%
48. CCOCCC(=O)NC1(c2cccc(Br)c2)CC1  -3.83%
49. CCOCC(=O)Nc1cc(C)cnc1OC  -3.98%
50. CCNC(=O)CCCC(=O)N1CCc2cc(Cl)cc(Cl)c2C1  -4.11%
51. CCCOCC(=O)N1CCc2nc(NC)nc(C(=O)N3CCCC3)c2C1  -4.23%
52. CNc1nc(C(=O)N2CCC3(CCCN(C)C3=O)C2)cs1 (centres undefined)  -4.39%
53. Cc1cc(C(=O)NC2CCc3c(ccc(=O)n3CC(C)C)C2)no1 (centres undefined)  -4.48%
54. CCc1c(C(=O)N2CC(C)OC(C)(C)C2)cnn1-c1ccccn1 (centres undefined)  -4.53%
55. CC(C)NC(=O)c1nnn(-c2cccc(C(F)(F)F)c2)c1N  -4.84%
56. Cc1cccc(CN2C[C@@H]3CN(C4CCOCC4)C[C@@H]3C2=O)c1  -4.96%
57. Cc1cc(C)n(CCC(=O)N2CCC(c3nc(C(C)C)no3)CC2)n1  -5.07%
58. CN1C[C@]2(CC[C@@H](C(=O)N3CCOCC3)CC2)Oc2ccccc2C1=O  -5.13%
59. CN(CCn1cncc1-c1cnc(N2CCOCC2)nc1)C1CCCC1  -5.17%
60. CC(C)N1CCO[C@H]2CN(Cc3cc[nH]n3)C[C@H]21  -5.26%
61. O=C(NCCc1ccccn1)[C@@]12CCO[C@@H]1CCN(CC1CC1)C2  -5.28%
62. CCS(=O)(=O)N1CCOC2(CCCN(c3cccc(C#N)c3)C2)C1 (centres undefined)  -5.28%
63. COc1ncccc1CN1Cc2nccn2CC(Cn2cccn2)C1 (centres undefined)  -5.37%
64. CN(C(=O)Cc1cccs1)C1CCN(c2ccccn2)CC1  -5.49%
65. Cc1ccc(CNC(=O)Nc2nnc(C)s2)cn1  -5.53%
66. CN(C(=O)CC1=CCCCC1)C1CCCN(CCc2ccccc2)C1 (centres undefined)  -5.66%
67. c1csc(CN2CCCN(c3ccc(Cn4ccnc4)cn3)CC2)c1  -5.7%
68. CN(C)c1ncc(C2Nc3cc(Cl)ccc3C3=NCCCN32)cn1 (centres undefined)  -5.74%
69. Cn1nc(CNS(=O)(=O)Cc2ccccc2F)c2c1CCCC2  -5.77%
70. CN(C)C(=O)COC1COC2(CCN(CC3CC3)CC2)C1 (centres undefined)  -5.8%
71. COCc1nc2ncc3c(=O)n(-c4ccccc4OC)ccc3n2n1  -5.8%
72. CCc1cc(NCCc2cccnc2)n2nc(C)c(C)c2n1  -5.81%
73. CC(C)C(=O)NCC(=O)N(C)C1CCCN(CCc2ccccc2)C1 (centres undefined)  -5.89%
74. O=C(NC1CC1)NC(c1cc(F)ccc1F)C1CC1 (centres undefined)  -5.9%
75. COc1ncccc1NC(=O)N1CCCC(CNC(=O)OC(C)(C)C)C1 (centres undefined)  -6.55%
76. COc1cccc(NC(=O)Cc2c(C)nc3c(c2C)c(=O)[nH]n3C)c1  -6.7%
77. O=C(CCc1c(F)cccc1F)NS(=O)(=O)c1ccc2c(c1)OCCO2  -6.92%
78. CC(C)NC(=O)CCN1CCC(C(=O)c2cc(F)ccc2F)CC1  -7.21%
79. Cn1nc(CN2CCCCC2)c2c1CN(Cc1ccoc1)C2  -7.22%
80. COCC1N(S(=O)(=O)c2cn(C)cn2)[C@H]2CC[C@]1(O)CC2 (some centres undefined)  -7.28%
81. Cc1ccc(C(=O)NCCNC(=O)c2cncnc2C(C)C)cc1F  -7.29%
82. COc1cccc(CC2(C(=O)O)CCN(c3nccs3)CC2)c1  -7.32%
83. CCc1ccc(C(NC(=O)CN(C)S(C)(=O)=O)C(C)(C)C)o1 (centres undefined)  -7.8%
84. Cc1ccc(C(=O)O)cc1S(=O)(=O)N(C)c1cccc(C#N)c1  -7.91%
85. N#Cc1ccccc1CN(CC(N)=O)C1CCCC1  -7.95%
86. N#CCCCS(=O)(=O)NC1(c2ccc(F)cc2)CC1  -8.06%
87. CCCn1nc2c(cc1=O)CN(Cc1cc(C)no1)CC2  -8.28%
88. Cc1cc(C)n(CCCNc2ncnc3c2NC(=O)CN3)n1  -8.3%
89. O=C(c1ccc(F)c(Br)c1)N1CCCN2CCCC2C1 (centres undefined)  -8.34%
90. COC(=O)c1ccc(N2CCC(c3ccccc3)CC2)nn1  -8.39%
91. Cc1cccc(CC2CCCN(C(=O)C3CCOCC3)C2)n1 (centres undefined)  -8.54%
92. NC(=O)Nc1cc(F)ccc1SCC(F)F  -8.84%
93. Cc1noc(C)c1C(=O)N1CC[C@]2(C[C@@H](OCc3cccnc3)CO2)C1  -9.24%
94. CC(C(=O)N1CCCC1)N1CCC(c2nccn2Cc2cscn2)CC1 (centres undefined)  -9.41%
95. Cc1cc(SC(C)(C)C)ccc1NCC(=O)NC(N)=O  -9.41%
96. CCOCC1CN(C(=O)c2ccco2)Cc2nn(C)cc21 (centres undefined)  -9.75%
97. Cc1nc(CO[C@@H]2CN(Cc3cccnc3)[C@@H]3COC[C@@H]32)cs1  -10.3%
98. CSCC[C@@H](CO)n1ccnc1-c1ccncc1  -10.3%
99. O=c1cc(N2CCCCC2)cnn1Cc1noc(C2CCCO2)n1 (centres undefined)  -10.8%
100. Cc1ccsc1CNC(=O)c1ccc(N2CCNC2=O)cc1  -10.8%
101. NC(=O)CN1CCC(C(=O)N2CCCC(OCc3cccnc3)C2)CC1 (centres undefined)  -11%
102. CC(C)n1c(=O)c2sccc2n(CC(=O)Nc2ccccc2)c1=O  -11%
103. CN1CCC(CO[C@H]2CN(C(=O)c3cccn3C)[C@@H]3COC[C@H]23)CC1  -11.6%
104. CC(C(=O)NCCN1CCOCC1)n1cncn1 (centres undefined)  -11.7%
105. CN(C)c1ncc(CNS(=O)(=O)c2cccc3ccccc23)n1C  -11.7%
106. COCCC(=O)N1CCCC1c1nccc(C)n1 (centres undefined)  -12.1%
107. O=C(c1cnn[nH]1)N1CCCC1c1nc2cc(F)ccc2[nH]1 (centres undefined)  -12.1%
108. Cc1nc(N(C)C)ncc1C(=O)NCCc1csc(-c2ccncc2)n1  -12.4%
109. CCNC(=O)N1CCC2(C1)c1ccccc1S(=O)(=O)N2CCC(C)C (centres undefined)  -12.9%
110. COc1ccccc1C(=O)NCCCN1CCCC1C(=O)N(C)C (centres undefined)  -14.3%
111. Cc1nn(CCC(=O)N(C)Cc2c(Cl)cnn2C)cc1Br  -14.9%
112. O=C(COc1coc(CN2CCCCC2)cc1=O)c1ccccc1  -18.6%
113. Cc1cnn(CC2CCCN2Cc2ncc(-c3ccccc3)o2)c1 (centres undefined)  -18.8%
114. CN(C)c1ncccc1CNC(=O)NCC(c1cccs1)N(C)C (centres undefined)  -23.8%
